According to patent US9994848B2, “Pharmaceutical composition for preventing and teating endocrine disrupting chemicals-induced diseases and treating method using the same” (priority 2016, dated 2018):

Legend:
adipocytes = experiment: Accumulation of PCBs in adipocytes; assay type: cell-based
[1] = system: p-Akt (Ser473) and p-PI3K p85 (Tyr458); experiment: Western blot of insulin-induced p-Akt and p-PI3K p85 in 3T3-L1 adipocytes; assay type: cell-based, mouse; conditions: for insulin-induced upregulation of p-Akt (Ser473) and p-PI3K p85 (Tyr458): 3T3-L1 adipocytes
Procedure: (§1) 3T3-L1 mouse embryo fibroblasts, purchased from American Type Culture Collection (Manassas, Va., USA), were maintained in standard Dulbecco's modified Eagle's medium (DMEM; Gibco-BRL, Gaithersburg, Md., USA) supplemented with 10% fetal calf serum (FCS; Gibco-BRL, Gaithersburg, Md., USA) and 1% penicillin/streptomycin at 37° C. in a humidified 5% CO2 atmosphere. After confluence, 3T3-L1 cells were induced to differentiate using DMI induction medium (DMEM containing 10% FBS, 0.5 mM 3-isobutyl-1-methylxanthine, 0.5 μM dexamethasone, and 1 μg/ml insulin) for 2 days, followed by DMII (DMEM containing 10% FBS and 1 μg/ml insulin) for 2 days. The medium was subsequently replaced with fresh culture medium (DMEM with 10% FBS) every 2 days for 4 days. To define the effects of PCBs on adipocyte differentiation, we incubated preadipocytes with PCBs (PCB-77, PCB-118, PCB-138 or PCB-153) at equivalent concentrations (20 μM) during DMI treatment.
(§2) Cells and tissues were washed with ice-cold PBS, resuspended in 100 μL ice-cold RIPA buffer and incubated at 4° C. for 30 min. Lysates were centrifuged at 13,000 rpm for 30 min at 4° C. Equal amounts of proteins were subjected to 7.5-15% sodium dodecyl sulfate polyacrylamide gel electrophoresis. The proteins were transferred to a nitrocellulose membrane and reacted with each antibody. Immunostaining with antibodies was performed using the Super Signal West Pico (Thermo Scientific, Hudson, N.H., USA) enhanced chemiluminescence substrate and detected with LAS-3000 Plus (Fuji Photo Film, Tokyo, Japan). Quantification and normalization to actin or GAPDH control bands were performed using ImageJ 1.48q (NIH imaging software, Bethesda, Md., USA).

IRS1 = IRS1 protein and mRNA level in 3T3-L1 adipocytes; assay type: cell-based, mouse; conditions: correlated with reversal of Fsp27 upregulation, Western blot
Procedure: as §1, with “To define the effects of PCBs on adipocyte differentiation, we incubated preadipocytes with PCBs (PCB-77, PCB-118, PCB-138 or PCB-153) at equivalent concentrations (20 μM) during DMI treatment.” left out
as §2, with “Lysates were centrifuged at 13,000 rpm for 30 min at 4° C. Equal amounts of proteins were subjected to 7.5-15% sodium dodecyl sulfate polyacrylamide gel electrophoresis. The proteins were transferred to a nitrocellulose membrane and reacted with each antibody.” left out

Fsp27 and perilipin [2] = experiment: Western blot of LD-associated proteins in 3T3-L1 adipocytes; assay type: cell-based, mouse; conditions: for protein expression levels of Fsp27 and perilipin: in vitro
Procedure: as §1, §2

3T3-L1 adipocytes [3] = experiment: Lipid droplet (LD) morphology and size in 3T3-L1 adipocytes (phase contrast, confocal microscopy); assay type: cell-based, mouse; conditions: for large LD formation: 3T3-L1 adipocytes treated with PCBs
Procedure: as §1
(§3) For the siRNA-mediated down-regulation of Fsp27, Fsp27-specific siRNA and negative control siRNA were purchased from Bioneer (Daejeon, Korea) and used at a concentration of 20 nM. 3T3-L1 mouse embryo fibroblasts were transfected with either the siRNA molecule specific for Fsp27 or a negative control siRNA using Lipofectamine® RNAiMAX per the manufacturer's instructions.

C57BL/6 mice [4] = experiment: Blood glucose, plasma insulin, GTT and ITT in PCB-administered mice; assay type: in vivo, mouse; conditions: for blood glucose level / plasma insulin level: 37.5 mg/kg ip; for amount of hyperglycemia in GTT: glucose 1 mg/g ip after 16 h fast; for efficiency of insulin in ITT: insulin 0.75 U/kg ip after 16 h fast
Procedure: (§4) Adult male C57BL/6 mice (8-week-old, 22-25 g) were purchased from SamTako Bio-Korea (Osan, Korea). The animals were maintained in a temperature-controlled room (22° C.) on a 12:12-h light-dark cycle. All procedures were approved by the Committee on Animal Investigations at Dong-A University. 12-week-old mice were administered vehicle (corn oil), PCB-118 or PCB-138 (37.5 mg/kg) by intraperitoneal (ip) injection for a total of three injections (2, 3 and 5 weeks) during the 6-week study duration. Mice were randomly divided into 3 groups of 10 animals each.
As previously described, intraperitoneal glucose tolerance tests (GTT) and insulin tolerance tests (ITT) were performed after the mice were fasted for 16 h. Plasma glucose concentrations were measured in tail blood using a GlucoDr Blood Glucose Test Strip (Hasuco, Seoul, South Korea) prior to and 30, 60, 90 and 120 minutes after intraperitoneally injecting a bolus of glucose (1 mg/g) for the GTT, and at the same time-points after intraperitoneally injecting 0.75 U/kg body weight insulin for the ITT.

aP2, PPAR and C/EBP = experiment: mRNA and protein levels of adipocyte differentiation markers in vitro; assay type: cell-based, mouse
Procedure: as §1, with “To define the effects of PCBs on adipocyte differentiation, we incubated preadipocytes with PCBs (PCB-77, PCB-118, PCB-138 or PCB-153) at equivalent concentrations (20 μM) during DMI treatment.” left out
as §2, with “Lysates were centrifuged at 13,000 rpm for 30 min at 4° C. Equal amounts of proteins were subjected to 7.5-15% sodium dodecyl sulfate polyacrylamide gel electrophoresis. The proteins were transferred to a nitrocellulose membrane and reacted with each antibody.” left out

C57BL/6 mice [5] = experiment: PCB exposure of C57BL/6 mice: adipose mass, adipocyte size, body and liver weight; assay type: in vivo, mouse; conditions: 37.5 mg/kg ip, three injections, 6-week study
Procedure: as §4
Epididymal white adipose tissues (eWAT) were fixed in 10% neutral buffered formalin and embedded in paraffin. Four-micrometer sections were prepared and stained with hematoxylin and eosin. The morphology of the […] was photographed using an Aperio ScanScope (Aperio Technologies, Vista, Calif., USA).

3T3-L1 adipocytes [6] = experiment: Oil Red O staining of 3T3-L1 adipocytes (adipocyte differentiation, total lipid content); assay type: cell-based, mouse; conditions: for oil red O staining (adipocyte differentiation): PCBs 20 μM during DMI treatment, 3T3-L1 adipocytes
Procedure: as §1, §3
As previously described (Kim et al. 2015), cells were washed twice in phosphate buffered saline (PBS) and fixed for 1 h with 10% (w/v) formaldehyde in PBS. After two washes in 60% isopropyl alcohol, the cells were stained for 30 min in freshly diluted Oil Red O solution. Then, the stain was removed, and the cells were washed 4 times in water. After adding 100% 2-propanol at 500 nm, the absorbance of the eluted Oil Red O was measured in a spectrophotometer.

Fsp27 and perilipin [7] = experiment: Western blot of LD-associated proteins in PCB-administered mice; parameters: species or system mouse; conditions: in vivo
Procedure: as §4, §2

Row | Structure (SMILES) | insulin-induced upregulation of p-Akt (Ser473) and p-PI3K p85 (Tyr458) [1] | blood glucose level (C57BL/6 mice [4]) | plasma insulin level (C57BL/6 mice [4]) | amount of hyperglycemia in GTT (C57BL/6 mice [4]) | efficiency of insulin in ITT (C57BL/6 mice [4]) | protein expression levels of Fsp27 and perilipin (Fsp27 and perilipin [2]; 3T3-L1 adipocytes) | mRNA and protein levels of aP2, PPAR and C/EBP (markers of adipocyte differentiation) (aP2, PPAR and C/EBP) | adipocyte size (eWAT) (C57BL/6 mice [5]) | adipose mass (C57BL/6 mice [5]) | body weight (C57BL/6 mice [5]) | liver weight (C57BL/6 mice [5]) | large LD formation (3T3-L1 adipocytes [3]) | oil red O staining (adipocyte differentiation) (3T3-L1 adipocytes [6]) | protein expression levels of Fsp27 and perilipin (Fsp27 and perilipin [7]) | other results
1 | CN(C)C(=N)N=C(N)N [metformin, reference compound] |  |  |  |  |  |  |  |  |  |  |  |  |  |  | accumulation of PCB-118 and PCB-138 in adipocytes (adipocytes): reverted; impairment by PCBs of the insulin-induced upregulation of p-Akt (Ser473) and p-PI3K p85 (Tyr458) ([1]; PCB-treated 3T3-L1 adipocytes): reversed; IRS1 downregulation in adipocytes exposed to PCBs (IRS1): reversal; expression level of Fsp27 (Fsp27 and perilipin [2]; 3T3-L1 adipocytes, Western blot): reduced; PCB-induced upregulation of Fsp27 expression (Fsp27 and perilipin [2]; PCB-treated 3T3-L1 adipocytes, Western blot): reversed; PCB-induced LD enlargement (3T3-L1 adipocytes [3]; PCB-treated 3T3-L1 adipocytes, phase contrast microscopy): reversed
2 | Clc1cc(Cl)c(-c2ccc(Cl)c(Cl)c2Cl)cc1Cl [PCB-138, 2,2′,3,4,4′,5′-Hexachlorobiphenyl] | impaired | increased | increased | increased | reduced | increased | increased | increased | increased | without affecting | without affecting | promote large LD formation | significantly increased | increased | 
3 | Clc1ccc(-c2ccc(Cl)c(Cl)c2)cc1Cl [PCB-77, 3,3′,4,4′-tetrachlorobiphenyl] |  |  |  |  |  |  |  |  |  |  |  |  |  |  | effect on the adipocyte differentiation (3T3-L1 adipocytes [6]; compared to PCB-118 and PCB-138, 20 μM): meager effect
4 | Clc1ccc(-c2cc(Cl)c(Cl)cc2Cl)cc1Cl [PCB-118, 2,3′,4,4′,5-pentachlorobiphenyl] | impaired | increased | increased | increased | reduced | increased | increased | increased | increased | without affecting | without affecting | promote large LD formation | significantly increased | increased | 
